Results as given in ChEMBL document CHEMBL4152374, “A new phenolic series of indenopyridinone as topoisomerase inhibitors: Design, synthesis, and structure-activity relationships” (Bioorg Med Chem, 2018).
Where a name gives a salt, the structure may show the parent alone.

Columns and labels:
[1] = target: DNA topoisomerase 2-alpha (Homo sapiens) (UniProt P11388); experiment: Inhibition of human topoisomerase 2-alpha using supercoiled pBR322 plasmid DNA as substrate at 100 uM after 30 mins by agarose gel electrophoresis method relative to control
HeLa = experiment: Antiproliferative activity against human HeLa cells after 72 hrs by EZ-CYTOX reagent based assay; type: functional, cell-based
[2] = target: T1, DNA topoisomerase 1 (Homo sapiens) (UniProt P11387); experiment: Inhibition of human topoisomerase 1 using supercoiled pBR322 plasmid DNA as substrate at 100 uM after 30 mins by agarose gel electrophoresis method relative to control
T1 sequence (whole entry): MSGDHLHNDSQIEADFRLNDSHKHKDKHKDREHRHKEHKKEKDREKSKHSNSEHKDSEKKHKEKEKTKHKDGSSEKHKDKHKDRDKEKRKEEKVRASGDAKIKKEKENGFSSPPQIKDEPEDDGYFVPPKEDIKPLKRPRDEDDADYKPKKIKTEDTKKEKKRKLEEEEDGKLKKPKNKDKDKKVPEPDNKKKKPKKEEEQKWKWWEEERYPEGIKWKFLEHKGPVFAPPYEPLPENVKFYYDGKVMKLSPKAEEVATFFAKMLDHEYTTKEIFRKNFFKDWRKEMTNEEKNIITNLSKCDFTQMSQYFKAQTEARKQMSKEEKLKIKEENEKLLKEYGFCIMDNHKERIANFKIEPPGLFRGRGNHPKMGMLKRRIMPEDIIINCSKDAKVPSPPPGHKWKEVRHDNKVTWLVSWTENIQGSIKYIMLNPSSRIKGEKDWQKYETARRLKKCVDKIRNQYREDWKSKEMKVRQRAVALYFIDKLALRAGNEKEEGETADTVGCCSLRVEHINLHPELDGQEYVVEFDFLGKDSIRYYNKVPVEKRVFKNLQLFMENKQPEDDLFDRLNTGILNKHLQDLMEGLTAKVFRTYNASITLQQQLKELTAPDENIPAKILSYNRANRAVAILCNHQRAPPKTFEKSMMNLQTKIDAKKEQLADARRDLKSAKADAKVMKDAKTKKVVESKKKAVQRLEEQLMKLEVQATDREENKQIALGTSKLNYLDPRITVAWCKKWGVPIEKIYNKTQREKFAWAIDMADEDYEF

HCT-15 = experiment: Antiproliferative activity against human HCT15 cells after 72 hrs by EZ-CYTOX reagent based assay; type: functional, cell-based; conditions: HCT-15, 72 h
T47D = experiment: Antiproliferative activity against human T47D cells after 72 hrs by EZ-CYTOX reagent based assay; type: functional, cell-based
[3] = target: DNA topoisomerase 2-alpha (Homo sapiens) (UniProt P11388); experiment: Inhibition of human topoisomerase 2-alpha using supercoiled pBR322 plasmid DNA as substrate at 20 uM after 30 mins by agarose gel electrophoresis method relative to etoposide
[4] = target: DNA topoisomerase 2-alpha (Homo sapiens) (UniProt P11388); experiment: Inhibition of human topoisomerase 2-alpha using supercoiled pBR322 plasmid DNA as substrate at 20 uM after 30 mins by agarose gel electrophoresis method relative to control
[5] = target: DNA topoisomerase 2-alpha (Homo sapiens) (UniProt P11388); experiment: Inhibition of human topoisomerase 2-alpha using supercoiled pBR322 plasmid DNA as substrate at 100 uM after 30 mins by agarose gel electrophoresis method relative to etoposide
[6] = target: T1, DNA topoisomerase 1 (Homo sapiens); experiment: Inhibition of human topoisomerase 1 using supercoiled pBR322 plasmid DNA as substrate at 20 uM after 30 mins by agarose gel electrophoresis method relative to control
Calf thymus DNA = experiment: Inhibition of EtBr binding to calf thymus DNA up to 40 uM by fluorescence spectroscopy; type: nucleic-acid assay; conditions: Bos taurus

DNA topoisomerase 2-alpha (Homo sapiens), sequence (P11388 whole entry): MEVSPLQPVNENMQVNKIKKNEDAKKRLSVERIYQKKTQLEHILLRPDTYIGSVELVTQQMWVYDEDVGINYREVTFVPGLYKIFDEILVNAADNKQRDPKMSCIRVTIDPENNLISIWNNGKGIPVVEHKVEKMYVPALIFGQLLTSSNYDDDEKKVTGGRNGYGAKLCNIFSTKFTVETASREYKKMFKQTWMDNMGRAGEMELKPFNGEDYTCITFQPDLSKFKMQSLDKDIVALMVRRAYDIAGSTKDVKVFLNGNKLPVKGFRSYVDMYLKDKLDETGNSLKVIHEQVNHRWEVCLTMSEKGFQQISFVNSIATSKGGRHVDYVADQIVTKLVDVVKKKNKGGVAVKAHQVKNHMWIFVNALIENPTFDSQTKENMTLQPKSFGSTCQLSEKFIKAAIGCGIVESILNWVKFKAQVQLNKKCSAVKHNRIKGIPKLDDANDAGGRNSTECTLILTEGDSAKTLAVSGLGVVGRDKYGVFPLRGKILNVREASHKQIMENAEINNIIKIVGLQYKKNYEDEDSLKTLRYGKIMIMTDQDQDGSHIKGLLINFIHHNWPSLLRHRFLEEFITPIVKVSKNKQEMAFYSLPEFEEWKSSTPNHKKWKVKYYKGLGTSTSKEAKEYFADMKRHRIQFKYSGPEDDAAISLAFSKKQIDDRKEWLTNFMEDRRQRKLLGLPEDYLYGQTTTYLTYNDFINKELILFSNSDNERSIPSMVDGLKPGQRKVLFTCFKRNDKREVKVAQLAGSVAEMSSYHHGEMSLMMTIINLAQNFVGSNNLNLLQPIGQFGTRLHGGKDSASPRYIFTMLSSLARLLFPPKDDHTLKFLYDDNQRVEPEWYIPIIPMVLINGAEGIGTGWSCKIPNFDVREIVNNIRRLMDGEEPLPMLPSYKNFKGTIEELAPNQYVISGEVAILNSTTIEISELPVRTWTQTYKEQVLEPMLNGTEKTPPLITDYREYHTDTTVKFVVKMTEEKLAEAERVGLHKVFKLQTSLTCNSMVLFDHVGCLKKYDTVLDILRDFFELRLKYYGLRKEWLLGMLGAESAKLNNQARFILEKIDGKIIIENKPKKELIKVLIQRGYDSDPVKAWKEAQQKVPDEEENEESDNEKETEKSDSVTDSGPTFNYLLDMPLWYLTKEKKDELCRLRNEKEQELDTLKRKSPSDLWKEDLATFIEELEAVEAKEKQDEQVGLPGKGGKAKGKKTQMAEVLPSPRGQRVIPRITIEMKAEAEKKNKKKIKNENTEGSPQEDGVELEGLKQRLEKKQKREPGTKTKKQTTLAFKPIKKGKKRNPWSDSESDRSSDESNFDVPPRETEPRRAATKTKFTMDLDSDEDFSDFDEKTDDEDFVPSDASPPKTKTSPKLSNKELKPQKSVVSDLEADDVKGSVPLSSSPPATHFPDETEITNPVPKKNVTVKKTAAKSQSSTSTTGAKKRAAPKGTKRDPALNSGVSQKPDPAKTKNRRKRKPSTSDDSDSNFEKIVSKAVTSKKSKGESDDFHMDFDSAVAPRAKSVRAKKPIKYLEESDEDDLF

Row | Compound | inhibition [1] [%] | inhibition [2] [%] | fold change (FC) [3] | inhibition [4] [%] | fold change (FC) [5] | inhibition [6] [%] | inhibition (Calf thymus DNA) | IC50 (HeLa) [µM] | IC50 (HCT-15) [µM] | IC50 (T47D) [µM]
1 | O=C1c2ccccc2-c2nc(-c3ccccc3)cc(-c3ccccc3)c21 | 25 | 5.8 | – | – | – | – | – | > 50 | > 50 | 6.5
2 | O=C1c2ccccc2-c2nc(-c3ccccc3O)cc(-c3cccc(O)c3)c21 | 86.5 | 0 | 0.26 | 12.8 | 1.15 to 1.23 | – | – | 4.84 | 6.09 | > 50
3 | O=C1c2ccccc2-c2nc(-c3cccc(O)c3)cc(-c3ccccc3)c21 | 22.5 | 0.5 | – | – | 0.32 | – | – | > 50 | > 50 | > 50
4 | O=C1c2ccccc2-c2nc(-c3ccccc3O)cc(-c3ccccc3)c21 | 4.9 | 0 | – | – | 0.06 | – | – | 31.7 | > 50 | 10.5
5 | COc1cc(NS(C)(=O)=O)ccc1Nc1c2ccccc2nc2ccccc12 | – | – | – | – | – | – | Dose-dependent effect | – | – | –
6 | O=C1c2ccccc2-c2nc(-c3ccccc3)cc(-c3ccccc3O)c21 | 23.8 | 0 | – | – | 0.32 | – | – | 2.58 | 2.32 | 1.33
7 | COc1cc([C@@H]2c3cc4c(cc3[C@@H](O[C@@H]3O[C@@H]5CO[C@@H](C)O[C@H]5[C@H](O)[C@H]3O)[C@H]3COC(=O)[C@H]23)OCO4)cc(OC)c1O [ETOPOSIDE] | – | – | – | – | – | – | – | 9.21 | 2.94 | 0.4
8 | O=C1c2ccccc2-c2nc(-c3ccccc3O)cc(-c3ccccc3O)c21 | 32.8 | 0 | 0.2 | 9.9 | 0.44 | – | – | > 50 | > 50 | > 50
9 | O=C1c2ccccc2-c2nc(-c3ccc(O)cc3)cc(-c3ccccc3)c21 | 23.3 | 0 | – | – | 0.31 | – | – | 2.25 | 2.18 | 1.4
10 | O=C1c2ccccc2-c2nc(-c3ccccc3O)cc(-c3ccc(O)cc3)c21 | 5.2 | 0 | – | – | 0.07 | – | – | > 50 | > 50 | > 50
11 | O=C1c2ccccc2-c2nc(-c3ccccc3)cc(-c3ccc(O)cc3)c21 | 63.3 | 50 | 0.35 | 15.2 | 0.9 | 0 | – | > 50 | > 50 | > 50
12 | O=C1c2ccccc2-c2nc(-c3ccc(O)cc3)cc(-c3ccc(O)cc3)c21 | 100 | 0 | 0.61 | 30.5 | 1.33 to 1.42 | – | – | 4.72 | 1.87 | 0.37
13 | COc1cccc2c1C(=O)c1c(O)c3c(c(O)c1C2=O)C[C@@](O)(C(=O)CO)C[C@@H]3O[C@H]1C[C@H](N)[C@H](O)[C@H](C)O1 [DOXORUBICIN HYDROCHLORIDE] | – | – | – | – | – | – | – | 1.5 | – | 0.31
14 | O=C1c2ccccc2-c2nc(-c3ccc(O)cc3)cc(-c3ccccc3O)c21 | 72.8 | 60 | 0.27 | 12 | 1.04 | 0 | – | 2.3 | 2.82 | 0.42
15 | CC[C@@]1(O)C(=O)OCc2c1cc1n(c2=O)Cc2cc3ccccc3nc2-1 [CAMPTOTHECIN] | – | – | – | – | – | – | – | 1.37 | 0.05 | –

The next lines start with results.

Row | inhibition [1] [%] | inhibition [2] [%] | fold change (FC) [3] | inhibition [4] [%] | fold change (FC) [5] | inhibition [6] [%] | inhibition (Calf thymus DNA) | Compound | IC50 (HeLa) [µM] | IC50 (HCT-15) [µM] | IC50 (T47D) [µM]
16 | 9.3 | 7.4 | – | – | 0.12 | – | – | O=C1c2ccccc2-c2nc(-c3ccccc3)cc(-c3cccc(O)c3)c21 | 2.24 | 2.48 | 1.18
17 | 21.5 | 81 | – | – | – | 0 | – | OC1c2ccccc2-c2nc(-c3ccccc3)cc(-c3ccccc3)c21 (configuration not stated) | > 50 | > 50 | > 50
18 | 53.6 | 63.9 | – | 22.6 | – | 0 | – | Oc1ccc(-c2cc(-c3ccccc3)nc3c2C(O)c2ccccc2-3)cc1 (configuration not stated) | > 50 | > 50 | 3.25
19 | 57.7 | 11.5 | – | 12.1 | – | – | – | Oc1ccc(-c2cc(-c3ccccc3O)c3c(n2)-c2ccccc2C3O)cc1 (configuration not stated) | 10.8 | 13 | 4.28
20 | 55.1 | 20.1 | – | 17.8 | – | – | – | Oc1cccc(-c2cc(-c3cccc(O)c3)c3c(n2)-c2ccccc2C3O)c1 (configuration not stated) | 6.91 | 6.2 | 1.61
21 | 40.7 | 0 | – | 0.3 | – | – | – | Oc1cccc(-c2cc(-c3ccccc3)c3c(n2)-c2ccccc2C3O)c1 (configuration not stated) | > 50 | > 50 | > 50
22 | 100 | 42.6 | 1.88 to 1.89 | 93.7 | 1.33 to 1.42 | 35.4 | Dose-dependent effect | O=C1c2ccccc2-c2nc(-c3cccc(O)c3)cc(-c3ccc(O)cc3)c21 | > 50 | 9.51 | 1.54
23 | 60.9 | 71.9 | – | 26.7 | – | 61.7 | – | Oc1ccc(-c2cc(-c3cccc(O)c3)c3c(n2)-c2ccccc2C3O)cc1 (configuration not stated) | 7.08 | 9.76 | 1.7
24 | 71.9 | 75.5 | 1.38 | 60.5 | 1.02 | 7.5 | – | O=C1c2ccccc2-c2nc(-c3ccc(O)cc3)cc(-c3cccc(O)c3)c21 | 4.32 | 1.96 | 1.49
25 | 68.9 | 25.7 | 0.47 | 20.8 | 0.98 | – | – | O=C1c2ccccc2-c2nc(-c3cccc(O)c3)cc(-c3cccc(O)c3)c21 | > 50 | > 50 | 1.24
26 | 2.6 | 0 | – | – | 0.03 | – | – | O=C1c2ccccc2-c2nc(-c3cccc(O)c3)cc(-c3ccccc3O)c21 | 1.52 | 1.36 | 0.11
